Measurements reported in publication PMC6466480 (Journal of Medicinal Chemistry, 2019).

Tests used:
[1] = target: human D3R (Homo sapiens, UniProt P35462); assay: β-Arrestin recruitment assay; format: cell-based; settings: agonist mode; percentage of the maximum dopamine response; CHO-K1
[2] = target: T1, human D4R (Homo sapiens, UniProt P21917); assay: cAMP inhibition assay; format: cell-based; settings: read-out: Emax at D4R (partial agonist)
T1 sequence (P21917 1-419): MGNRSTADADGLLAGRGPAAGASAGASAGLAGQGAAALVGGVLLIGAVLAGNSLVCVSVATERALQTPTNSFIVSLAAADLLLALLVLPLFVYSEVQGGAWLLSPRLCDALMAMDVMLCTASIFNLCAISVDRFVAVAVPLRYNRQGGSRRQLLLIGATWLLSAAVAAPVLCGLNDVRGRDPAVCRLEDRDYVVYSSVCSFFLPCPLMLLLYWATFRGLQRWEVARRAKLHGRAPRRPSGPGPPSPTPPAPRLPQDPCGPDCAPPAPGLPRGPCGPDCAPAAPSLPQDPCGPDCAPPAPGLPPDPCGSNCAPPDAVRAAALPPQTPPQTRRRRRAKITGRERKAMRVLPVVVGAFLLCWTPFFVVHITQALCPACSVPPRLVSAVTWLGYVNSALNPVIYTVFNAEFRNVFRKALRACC

[3] = test system: D4R; settings: initially characterized as a full agonist; cited from earlier work

Chain of human D3R (P35462 whole entry): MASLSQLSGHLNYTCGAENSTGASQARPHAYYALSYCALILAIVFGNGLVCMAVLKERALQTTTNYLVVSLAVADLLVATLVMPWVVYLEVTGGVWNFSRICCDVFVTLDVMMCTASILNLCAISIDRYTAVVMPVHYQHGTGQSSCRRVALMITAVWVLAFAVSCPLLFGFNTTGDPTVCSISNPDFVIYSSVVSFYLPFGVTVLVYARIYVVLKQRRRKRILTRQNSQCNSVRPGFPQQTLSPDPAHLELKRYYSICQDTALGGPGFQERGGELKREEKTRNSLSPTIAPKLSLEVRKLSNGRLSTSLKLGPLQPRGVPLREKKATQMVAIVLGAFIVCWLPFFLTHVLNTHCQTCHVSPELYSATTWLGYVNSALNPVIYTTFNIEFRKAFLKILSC

Cc1cccc(NC(=O)CN2CCC(c3ccccn3)CC2)c1 [Compound 1, 2-(4-(pyridin-2-yl)piperidin-1-yl)-N-(m-tolyl)acetamide]
D3R efficacy β-arr Emax [1]: very low potency and efficacy | Emax [2]: 23 to 62% | intrinsic activity at D4R [3]: 83%
